Results as given in patent publication US9012431B2, “Boron-containing small molecules as anti-inflammatory agents” (Anacor Pharmaceuticals, Inc., priority 2008, dated 2015).
pIC50: −log10 of the molar value.

Experiments:
[1] = system: TNF-α; assay: Cytokine assay, TNF-α release from PBMC; type: cell-based; settings: 1 μg/mL LPS; for pIC50: Homo sapiens, PBMC, 24 h, supernatant at 24 hours; for inhibition at 10 µM: human PBMC, 24 hours
Protocol: (§1) The ability of the compounds described herein to inhibit pro-inflammatory cytokines or phsophodiesterases were tested.
(§2) Frozen human peripheral blood mononucleocytes (PBMC) were thawed and centrifuged. Cryopreservation media was aspirated off of the cell pellet, and the cells were resuspended in fresh culture media (CM) comprising RPMI 1640 and 10% FBS in 96 well plates. Test article was dissolved in DMSO to form a 10 mM sample (DMSO, 100%). The 10 mM samples were diluted to 100 μM in CM (DMSO, 1%), then further diluted to 10, 1, 0.1, 0.01 μM in 200 μL of CM (n=3). […] IL-23 was assayed using a commercial ELISA kit (R&D Systems).

[2] = system: IL-2; assay: Cytokine assay, IL-2 release from PBMC; type: cell-based; settings: human PBMC, 20 ug/mL PHA; for pIC50: supernatant at 24 hours; for inhibition at 10 µM: 24 hours
Protocol: as §1, §2

[3] = system: IFN-γ; assay: Cytokine assay, IFN-γ release from PBMC; type: cell-based; settings: human PBMC, 20 ug/mL PHA; for pIC50: supernatant at 24 hours; for inhibition at 10 µM: 24 hours
Protocol: as §1, §2

[4] = system: IL-5; assay: Cytokine assay, IL-5 release from PBMC; type: cell-based; settings: human PBMC, 20 ug/mL PHA; for pIC50: supernatant at 48 hours; for inhibition at 10 µM: 48 hours
Protocol: as §1, §2

[5] = system: IL-10; assay: Cytokine assay, IL-10 release from PBMC; type: cell-based; settings: human PBMC, 20 ug/mL PHA; for pIC50: supernatant at 48 hours; for inhibition at 10 µM: 48 hours
Protocol: as §1, §2

[6] = system: T1, PDE4 partially purified from human U-937 myeloid leukemia cells; assay: PDE4 Assay (enzyme from U-937 cells, [3H]cAMP); type: biochemical; settings: PDE4 from U-937 cells, Tris buffer pH 7.5, 20 minutes at 25° C.
T1 construct: PDE4 partially purified from human U-937 myeloid leukemia cells was used
Protocol: Test article and/or vehicle was incubated with 0.2 mg enzyme and 1 mM cAMP containing 0.01 mM [3H]cAMP in Tris buffer pH 7.5 for 20 minutes at 25° C. The reaction was terminated by boiling for 2 minutes and the resulting AMP is converted to adenosine by addition of 10 mg/ml snake venom nucleotidase and further incubation at 37° C. for 10 minutes. Unhydrolyzed cAMP is bound to AG1-X2 resin, and remaining [3H]Adenosine in the aqueous phase is quantitated by scintillation counting.

Compound	pIC50 [1]	pIC50 [2]	pIC50 [3]	pIC50 [4]	pIC50 [5]	pIC50 [6]	inhibition at 10 µM [1]	inhibition at 10 µM [2]	inhibition at 10 µM [3]	inhibition at 10 µM [4]	inhibition at 10 µM [5]
N#Cc1ccc(Oc2ccc3c(c2)COB3O)cc1C(=O)O [D8, 5-(3-Carboxy-4-cyanophenoxy)-1,3-dihydro-1-hydroxy-2,1-benzoxaborole]	< 5.00	5.40 to 6.00	< 5.00	< 5.00	< 5.00	–	–	–	–	–	–
N#Cc1ccc(Oc2ccc3c(c2)COB3O)c(OCC(=O)O)c1 [D17, 5-[2-(Carboxymethoxy)-4-cyanophenoxy]-1,3-dihydro-1-hydroxy-2,1-benzoxaborole]	5.00 to 5.40	< 5.00	< 5.00	–	–	> 6.00	–	–	–	–	–
O=C(O)c1ccc(Oc2ccc3c(c2)COB3O)c(O)c1 [D18, 5-(4-Carboxy-2-hydroxyphenoxy)-1,3-dihydro-1-hydroxy-2,1-benzoxaborole]	< 5.00	< 5.00	< 5.00	–	–	–	–	–	–	–	–
CCOC(=O)c1ccc(Oc2ccc3c(c2)COB3O)c(O)c1 [D19, 5-(4-Ethoxycarbonyl-2-hydroxyphenoxy)-1,3-dihydro-1-hydroxy-2,1-benzoxaborole]	5.40 to 6.00	5.40 to 6.00	5.40 to 6.00	–	–	> 6.00	–	–	–	–	–
CCOC(=O)c1ccc(Oc2ccc3c(c2)COB3O)c(OC)c1 [D20, 5-(4-Ethoxycarbonyl-2-methoxyphenoxy)-1,3-dihydro-1-hydroxy-2,1-benzoxaborole]	> 6.00	> 6.00	> 6.00	–	–	> 6.00	–	–	–	–	–
CCOC(=O)c1ccc(Oc2ccc3c(c2)COB3O)c(OC2CCCC2)c1 [D21, 5-[4-Ethoxycarbonyl-2-(cyclopentyloxy)phenoxy]-1,3-dihydro-1-hydroxy-2,1-benzoxaborole]	5.40 to 6.00	> 6.00	> 6.00	–	–	> 6.00	–	–	–	–	–
N#Cc1ccc(Oc2ccc3c(c2)COB3O)c(C=O)c1 [D23, 5-(4-Cyano-2-formylphenoxy)-1,3-dihydro-1-hydroxy-2,1-benzoxaborole]	5.00 to 5.40	–	–	–	–	–	–	–	–	–	–
N#Cc1ccc(Oc2ccc3c(c2)COB3O)cc1OCC(=O)O [D39, [2-Cyano-5-(1-hydroxy-1,3-dihydro-benzo[c][1,2]oxaborol-5-yloxy)-phenoxy]-acetic acid]	–	–	–	–	–	–	30 to 60%	30 to 60%	30 to 60%	< 30%	–
CC1CCN(C(=O)COc2cc(Oc3ccc4c(c3)COB4O)ccc2C#N)CC1 [D42, 4-(1-Hydroxy-1,3-dihydro-benzo[c][1,2]oxaborol-5-yloxy)-2-[2-(4-methyl-piperidin-1-yl)-2-oxo-ethoxy]-benzonitrile]	–	–	–	–	–	–	60 to 90%	90 to 100%	90 to 100%	60 to 90%	60 to 90%
C[NH+]1CCN(C(=O)COc2cc(Oc3ccc4c(c3)COB4O)ccc2C#N)CC1 [D43, 4-(1-Hydroxy-1,3-dihydro-benzo[c][1,2]oxaborol-5-yloxy)-2-[2-(4-methyl-piperazin-1-yl)-2-oxo-ethoxy]-benzonitrile hexafluorophosphate]	–	–	–	–	–	–	< 30%	90 to 100%	60 to 90%	60 to 90%	60 to 90%
O=C(O)c1cnc(Oc2ccc3c(c2)COB3O)c(Cl)c1 [D49, 5-Chloro-6-(1-hydroxy-1,3-dihydrobenzo[c][1,2]oxaborol-5-yloxy)nicotinic acid]	5.00 to 5.40	5.00 to 5.40	5.00 to 5.40	–	–	5.40 to 6.00	–	–	–	–	–
OCc1ccc(Oc2ccc3c(c2)COB3O)nc1 [D64, 5-(5-(Hydroxymethyl)pyridin-2-yloxy)benzo[c][1,2]oxaborol-1 (3H)-ol]	5.40 to 6.00	5.00 to 5.40	5.00 to 5.40	< 5.00	5.00 to 5.40	–	–	–	–	–	–
CC(C)(C)/[N+]([O-])=C/c1ccc(Oc2ccc3c(c2)COB3O)nc1 [D70, (Z)—N-((6-(1-hydroxy-1,3-dihydrobenzo[c][1,2]oxaborol-5-yloxy)pyridin-3-yl)methylene)-2-methylpropan-2-amine oxide]	5.40 to 6.00	> 6.00	5.40 to 6.00	–	–	5.40 to 6.00	–	–	–	–	–
CN(C)CCOC(=O)c1ccc(Oc2ccc3c(c2)COB3O)cc1 [D75, 4-(1-Hydroxy-1,3-dihydro-benzo[c][1,2]oxaborol-5-yloxy)-benzoic acid 2-dimethylamino-ethyl ester]	5.40 to 6.00	5.40 to 6.00	5.00 to 5.40	5.00 to 5.40	< 5.00	–	–	–	–	–	–
O=C(NCCO)c1ccc(Oc2ccc3c(c2)COB3O)cc1 [D77, 4-(1-Hydroxy-1,3-dihydro-benzo[c][1,2]oxaborol-5-yloxy)-N-(2-hydroxy-ethyl)-benzamide]	< 5.00	5.40 to 6.00	5.40 to 6.00	< 5.00	5.00 to 5.40	–	–	–	–	–	–
CN1CCN(C(=O)c2ccc(Oc3ccc4c(c3)COB4O)cc2)CC1 [D79, [4-(1-Hydroxy-1,3-dihydro-benzo[c][1,2]oxaborol-5-yloxy)-phenyl]-(4-methyl-piperazin-1-yl)-methanone]	< 5.00	< 5.00	< 5.00	< 5.00	< 5.00	–	–	–	–	–	–
CC(=O)N1CCN(C(=O)c2ccc(Oc3ccc4c(c3)COB4O)cc2)CC1 [D80, 1-{4-[4-(1-Hydroxy-1,3-dihydro-benzo[c][1,2]oxaborol-5-yloxy)-benzoyl]-piperazin-1-yl}-ethanone]	< 5.00	< 5.00	< 5.00	< 5.00	< 5.00	–	–	–	–	–	–
CN(C)CCNC(=O)c1ccc(Oc2ccc3c(c2)COB3O)cc1 [D81, N-(2-Dimethylamino-ethyl)-4-(1-hydroxy-1,3-dihydro-benzo[c][1,2]oxaborol-5-yloxy)-benzamide]	< 5.00	< 5.00	< 5.00	5.00 to 5.40	< 5.00	–	–	–	–	–	–
N#Cc1ccc(Oc2ccc3c(c2)COB3O)nc1O [D108, 2-hydroxy-6-(1-hydroxy-1,3-dihydrobenzo[c][1,2]oxaborol-5-yloxy)nicotinonitrile]	–	–	–	–	–	5.00 to 5.40	–	–	–	–	–
COc1nc(Oc2ccc3c(c2F)COB3O)ccc1C#N [D114, 6-(4-Fluoro-1-hydroxy-1,3-dihydrobenzo[c][1,2]oxaborol-5-yloxy)-2-methoxynicotinonitrile]	> 6.00	> 6.00	> 6.00	> 6.00	< 5.00	–	–	–	–	–	–
NCc1ccc(Oc2ccc3c(c2)COB3O)nc1NCCO [D117]	5.40 to 6.00	5.40 to 6.00	< 5.00	5.40 to 6.00	< 5.00	–	–	–	–	–	–
N#Cc1ccc(Oc2ccc3c(c2)COB3O)nc1NCc1ccccc1 [D121, 2-Benzylamino-6-(1-hydroxy-1,3-dihydro-benzo[c][1,2]oxaborol-5-yloxy)-nicotinonitrile]	> 6.00	> 6.00	> 6.00	> 6.00	5.40 to 6.00	–	–	–	–	–	–
CC(C)(C)Nc1nc(Oc2ccc3c(c2)COB3O)ccc1C#N [D129, 2-tert-butylamino-6-(1-hydroxy-1,3-dihydro-benzo[c][1,2]oxaborol-5-yloxy)-nicotinonitrile]	> 6.00	–	–	–	–	> 6.00	–	–	–	–	–
N#Cc1ccc(Oc2ccc3c(c2)COB3O)nc1NCCO [D132, 6-(1-hydroxy-1,3-dihydro-benzo[c][1,2]oxaborol-5-yloxy)-2-(2-hydroxy-ethylamino)-nicotinonitrile]	> 6.00	> 6.00	> 6.00	> 6.00	> 6.00	–	–	–	–	–	–
N#Cc1ccc(Oc2ccc3c(c2)COB3O)c(OC2CCCC2)c1 [D133, 3-(cyclopentyloxy)-4-(1-hydroxy-1,3-dihydrobenzo[c][1,2]oxaborol-5-yloxy)benzonitrile]	> 6.00	–	–	–	–	> 6.00	–	–	–	–	–
N#Cc1ccc(Oc2ccc3c(c2)COB3O)c(OCC2CC2)c1 [D134, 3-(cyclopropylmethoxy)-4-(1-hydroxy-1,3-dihydrobenzo[c][1,2]oxaborol-5-yloxy)benzonitrile]	> 6.00	–	–	–	–	> 6.00	–	–	–	–	–
N#Cc1ccc(Oc2ccc3c(c2)COB3O)c(OCC2CCCC2)c1 [D135, 3-(cyclopentylmethoxy)-4-(1-hydroxy-1,3-dihydrobenzo[c][1,2]oxaborol-5-yloxy)benzonitrile]	> 6.00	–	–	–	–	> 6.00	–	–	–	–	–
CC(C)COc1nc(Oc2ccc3c(c2)COB3O)ccc1C#N [D136, 6-(1-Hydroxy-1,3-dihydro-benzo[c][1,2]oxaborol-5-yloxy)-2-isobutoxy-nicotinonitrile]	> 6.00	–	–	–	–	> 6.00	–	–	–	–	–
N#Cc1cc(CNC=O)ccc1Oc1ccc2c(c1)COB2O [D137, 5-[2-Cyano-4-(formylaminomethyl)phenoxy]-1,3-dihydro-1-hydroxy-2,1-benzoxaborole]	5.40 to 6.00	–	–	–	–	–	–	60 to 90%	60 to 90%	30 to 60%	30 to 60%
